# Measurements as given in article PMC6008465 (British Journal of Cancer, 2018).
# Marks after values point to notes of the source that are not given here.
# How the values were obtained:
# [1] = Part A pharmacokinetics (plasma and urine, noncompartmental analysis); format: in vivo, human
# Method: In Part A, blood was collected on Cycle 1, Days 1 and 15 at specified intervals prior to, during, and postinfusion (5 min–8 h), and on Days 2, 3, 16, and 17 (24 and 48 h postinfusion). Urine was collected on Cycle 1, Day 1 preinfusion, at 0–8 h, and 8–24 h. In Part B, blood was collected on Cycle 1, Day 1, prior to, during, and at 1–24 h postinfusion. Pharmacokinetic parameters were calculated using noncompartmental analysis.
# [2] = test system: patients with advanced solid tumours, including melanoma; test: Phase 1 study overall (Parts A and B): safety; format: in vivo, human
# Method: Safety was assessed by monitoring AEs, serious AEs (SAEs), laboratory parameters, vital signs, 12-lead electrocardiograms (ECGs), Eastern Cooperative Oncology Group performance status, and symptom-directed physical and neurologic examination findings. AEs were graded by investigators based on the National Cancer Institute Common Terminology Criteria for Adverse Events, version 3.[16]
# phosphor-ERK levels = details: quoted in discussion, no reference given; read-out: IC50 for inhibition of phosphor-ERK levels; cited from earlier work
# cyclin D1 = details: quoted in discussion, no reference given, cited from earlier work
# [3] = Cycle 1 Day 1, 160 mg/m^2 (n=3)
# [4] = Cycle 1 Day 1, 320 mg/m^2 (n=7)
# [5] = Cycle 1 Day 1, 400 mg/m^2 (n=1)
# [6] = Cycle 1 Day 1, 480 mg/m^2 (n=4)
# [7] = Cycle 1 Day 15, 20 mg/m^2 (n=3)
# [8] = Cycle 1 Day 15, 40 mg/m^2 (n=3)
# [9] = Cycle 1 Day 15, 80 mg/m^2 (n=3)
# [10] = Cycle 1 Day 15, 160 mg/m^2 (n=3)
# [11] = Cycle 1 Day 15, 320 mg/m^2 (n=6)
# [12] = Cycle 1 Day 15, 400 mg/m^2 (n=1)
# [13] = Cycle 1 Day 15, 480 mg/m^2 (n=4)
structure (smiles),measurement,setting,value
"CCNc1cc(O)c2c(c1)/C=C/C[C@H](O)[C@H](O)C(=O)/C=C\[C@@H](C)[C@H](C)OC2=O [E6201, (3S,4R,5Z,8S,9S,11E)-14-(ethylamino)-8,9,16-trihydroxy-3,4-dimethyl-3,4,9,19-tetrahydro-1H-2-benzoxacyclotetradecine-1,7 (8H)-dione]",Fraction of E6201 excreted in the urine,[1]; 24-hour collection interval,≤ 0.21%
same,"AUC(0-t), mean (%CV)","[1]; Cycle 1 Day 1, 20 mg/m^2 (n=4)",1650 (218) ng·h/mL
same,"CLR (renal clearance), mean (%CV)","[1]; Cycle 1 Day 1, 20 mg/m^2 (n=4)",10.0 (188) mL/h
same,"Cmax, mean (%CV)","[1]; Cycle 1 Day 1, 20 mg/m^2 (n=4)",552 (50) ng/mL
same,"Tmax, median (range)","[1]; Cycle 1 Day 1, 20 mg/m^2 (n=4)",0.5 (0.25–0.5) h
same,"fe (fraction of drug excreted in urine), mean (%CV)","[1]; Cycle 1 Day 1, 20 mg/m^2 (n=4)",0.0125 (42) %
same,"t½, mean","[1]; Cycle 1 Day 1, 20 mg/m^2, n=2",1.96^b (--) h
same,"CL, mean (%CV)","[1]; Cycle 1 Day 1, 20 mg/m^2, n=2, %CV 2",110^b (2) L/h
same,"Vss, mean (%CV)","[1]; Cycle 1 Day 1, 20 mg/m^2, n=2, %CV 28",135^b (28) L
same,"AUC(0-t), mean (%CV)","[1]; Cycle 1 Day 1, 40 mg/m^2 (n=3)",2410 (201) ng·h/mL
same,"CLR (renal clearance), mean (%CV)","[1]; Cycle 1 Day 1, 40 mg/m^2 (n=3)",1.65 (--) mL/h
same,"Cmax, mean (%CV)","[1]; Cycle 1 Day 1, 40 mg/m^2 (n=3)",870 (70) ng/mL
same,"Tmax, median (range)","[1]; Cycle 1 Day 1, 40 mg/m^2 (n=3)",0.5 (0.5–0.5) h
same,"fe (fraction of drug excreted in urine), mean (%CV)","[1]; Cycle 1 Day 1, 40 mg/m^2 (n=3)",0 (--) %
same,"t½, mean","[1]; Cycle 1 Day 1, 40 mg/m^2, n=2",2.70^b (--) h
same,"Vss, mean (%CV)","[1]; Cycle 1 Day 1, 40 mg/m^2, n=2, %CV 21",164^b (21) L
same,"CL, mean (%CV)","[1]; Cycle 1 Day 1, 40 mg/m^2, n=2, %CV 25",103^b (25) L/h
same,"AUC(0-t), mean (%CV)","[1]; Cycle 1 Day 1, 80 mg/m^2 (n=3)",2520 (63) ng·h/mL
same,"CL, mean (%CV)","[1]; Cycle 1 Day 1, 80 mg/m^2 (n=3)",68.7 (60) L/h
same,"CLR (renal clearance), mean (%CV)","[1]; Cycle 1 Day 1, 80 mg/m^2 (n=3)",28.9 (54) mL/h
same,"Cmax, mean (%CV)","[1]; Cycle 1 Day 1, 80 mg/m^2 (n=3)",3350 (149) ng/mL
same,"Tmax, median (range)","[1]; Cycle 1 Day 1, 80 mg/m^2 (n=3)",0.5 (0.25–0.5) h
same,"Vss, mean (%CV)","[1]; Cycle 1 Day 1, 80 mg/m^2 (n=3)",135 (100) L
same,"fe (fraction of drug excreted in urine), mean (%CV)","[1]; Cycle 1 Day 1, 80 mg/m^2 (n=3)",0.04 (26) %
same,"t½, mean","[1]; Cycle 1 Day 1, 80 mg/m^2 (n=3)",2.79 (--) h
same,"AUC(0-t), mean (%CV)",[1]; [3],2770 (36) ng·h/mL
same,"CL, mean (%CV)",[1]; [3],119 (50) L/h
same,"CLR (renal clearance), mean (%CV)",[1]; [3],89.7 (299) mL/h
same,"Cmax, mean (%CV)",[1]; [3],2740 (51) ng/mL
same,"Tmax, median (range)",[1]; [3],0.5 (0.25–0.5) h
same,"Vss, mean (%CV)",[1]; [3],216 (55) L
same,"fe (fraction of drug excreted in urine), mean (%CV)",[1]; [3],0.0567 (186) %
same,"t½, mean",[1]; [3],3.98 (--) h
same,"AUC(0-t), mean (%CV)",[1]; [4],10400 (26) ng·h/mL
same,"CL, mean (%CV)",[1]; [4],57.2 (22) L/h
same,"CLR (renal clearance), mean (%CV)",[1]; [4],60.0 (659) mL/h
same,"Cmax, mean (%CV)",[1]; [4],14800 (73) ng/mL
same,"Tmax, median (range)",[1]; [4],0.25 (0.25–0.5) h
same,"Vss, mean (%CV)",[1]; [4],89.1 (36) L
same,"fe (fraction of drug excreted in urine), mean (%CV)",[1]; [4],0.109 (56) %
same,"t½, mean",[1]; [4],4.00 (--) h
same,"AUC(0-t), mean (%CV)",[1]; [5],13500 (--) ng·h/mL
same,"CL, mean (%CV)",[1]; [5],52.8 (--) L/h
same,"CLR (renal clearance), mean (%CV)",[1]; [5],111 (--) mL/h
same,"Cmax, mean (%CV)",[1]; [5],19500 (--) ng/mL
same,"Tmax, median (range)",[1]; [5],0.25 (0.25–0.25) h
same,"Vss, mean (%CV)",[1]; [5],80.1 (---) L
same,"fe (fraction of drug excreted in urine), mean (%CV)",[1]; [5],0.21 (--) %
same,"t½, mean",[1]; [5],6.50 (--) h
same,"AUC(0-t), mean (%CV)",[1]; [6],10200 (56) ng·h/mL
same,"CL, mean (%CV)",[1]; [6],101 (44) L/h
same,"CLR (renal clearance), mean (%CV)",[1]; [6],137 (128) mL/h
same,"Cmax, mean (%CV)",[1]; [6],8070 (55) ng/mL
same,"Tmax, median (range)",[1]; [6],0.375 (0.25–0.5) h
same,"Vss, mean (%CV)",[1]; [6],275 (42) L
same,"fe (fraction of drug excreted in urine), mean (%CV)",[1]; [6],0.143 (96) %
same,"t½, mean",[1]; [6],5.97 (--) h
same,"AUC(0-t), mean (%CV)",[1]; [7],1420 (250) ng·h/mL
same,"Cmax, mean (%CV)",[1]; [7],895 (228) ng/mL
same,"Tmax, median (range)",[1]; [7],0.5 (0.25–0.5) h
same,"CL, mean (%CV)","[1]; Cycle 1 Day 15, 20 mg/m^2, n=1",184^c (--) L/h
same,"Vss, mean (%CV)","[1]; Cycle 1 Day 15, 20 mg/m^2, n=1",324^ c (--) L
same,"t½, mean","[1]; Cycle 1 Day 15, 20 mg/m^2, n=1",1.58^c (--) h
same,"AUC(0-t), mean (%CV)",[1]; [8],2090 (169) ng·h/mL
same,"Cmax, mean (%CV)",[1]; [8],767 (78) ng/mL
same,"Tmax, median (range)",[1]; [8],0.5 (0.25–0.5) h
same,"t½, mean","[1]; Cycle 1 Day 15, 40 mg/m^2, n=2",1.88^ b (--) h
same,"Vss, mean (%CV)","[1]; Cycle 1 Day 15, 40 mg/m^2, n=2, %CV 27",115^b (27) L
same,"CL, mean (%CV)","[1]; Cycle 1 Day 15, 40 mg/m^2, n=2, %CV 47",91^b (47) L/h
same,"AUC(0-t), mean (%CV)",[1]; [9],2540 (66) ng·h/mL
same,"Cmax, mean (%CV)",[1]; [9],2590 (154) ng/mL
same,"Tmax, median (range)",[1]; [9],0.25 (0.25–0.5) h
same,"t½, mean",[1]; [9],5.55 (--) h
same,"CL, mean (%CV)","[1]; Cycle 1 Day 15, 80 mg/m^2, n=2, %CV 67",76.2^ b (67) L/h
same,"Vss, mean (%CV)","[1]; Cycle 1 Day 15, 80 mg/m^2, n=2, %CV 146",148^ b (146) L
same,"AUC(0-t), mean (%CV)",[1]; [10],4300 (32) ng·h/mL
same,"CL, mean (%CV)",[1]; [10],71.2 (18) L/h
same,"Cmax, mean (%CV)",[1]; [10],5430 (120) ng/mL
same,"Tmax, median (range)",[1]; [10],0.25 (0.25–0.5) h
same,"Vss, mean (%CV)",[1]; [10],110 (74) L
same,"t½, mean",[1]; [10],4.20 (--) h
same,"AUC(0-t), mean (%CV)",[1]; [11],11100 (13) ng·h/mL
same,"CL, mean (%CV)",[1]; [11],49.8 (18) L/h
same,"Cmax, mean (%CV)",[1]; [11],18000 (64) ng/mL
same,"Tmax, median (range)",[1]; [11],0.25 (0.25–0.5) h
same,"Vss, mean (%CV)",[1]; [11],111 (69) L
same,"t½, mean",[1]; [11],6.83 (--) h
same,"AUC(0-t), mean (%CV)",[1]; [12],10500 (--) ng·h/mL
same,"Cmax, mean (%CV)",[1]; [12],21600 (--) ng/mL
same,"Tmax, median (range)",[1]; [12],0.25 (0.25–0.25) h
same,"AUC(0-t), mean (%CV)",[1]; [13],11300 (73) ng·h/mL
same,"CL, mean (%CV)",[1]; [13],82 (38) L/h
same,"Cmax, mean (%CV)",[1]; [13],12200 (88) ng/mL
same,"Tmax, median (range)",[1]; [13],0.375 (0.25–0.5) h
same,"Vss, mean (%CV)",[1]; [13],217 (84) L
same,"t½, mean",[1]; [13],4.78 (--) h
same,Accumulation on multiple dosing,"[1]; Day 15 vs Day 1, once-weekly dosing",Lack of E6201 accumulation
same,"Mean clearance (CL), range over dose groups",[1]; Part A,49.8 to 184 L/h
same,"Renal clearance (CLR), range over dose groups",[1]; Part A,1.65 to 137 mL/h
same,Time of peak E6201 concentration (mid-to-end of infusion),"[1]; Part A, 30-min IV infusion",0.25 to 0.5 h
same,Patients who died during the study,[2]; Parts A and B,Four
same,AEs of cardiomyopathy,[2]; during the study,no reported AEs of cardiomyopathy
same,New skin cancers,[2]; during the study,No new skin cancers were reported
same,IC50,phosphor-ERK levels,2.08 nM
same,IC50 for inhibition of cyclin D1,cyclin D1,1.87 ng/mL
same,IC50,cyclin D1; read-out: IC50 for inhibition of cyclin D1,4.8 nM
